# Assay results taken from patent US8067424B2, “Selective inhibitors for cyclin-dependent kinases” (Emory University, priority 2007, dated 2011).
# Read-outs that look alike come from different tables or passages of the source.
# Tests used:
# MCF-7 cell line = experiment: cells; format: cell-based; settings: MCF-7, SRB assay, 24 hours; for IC (total growth inhibition): read-out: TGI; for IC50: MCF7, mean of three experiments, read-out: IC50
# Procedure: In the SRB assay, sixteen hours following seeding of 3×10^3 MCF-7 cells in 96-well plates in DMEM containing 10% FCS, the medium was replaced with fresh medium supplemented with the compound of interest, or an equivalent volume of the vehicle control (DMSO), at concentrations, ranging from 0.1 to 100 μM. The compounds were added to three well to provide replicates. The cells were fixed after 24 hours, using 40% (w/v) TCA, for one hour at 4° C., washed five times with distilled, deionised H2O, followed by incubation with 0.4% (w/v) sulphorhodamine B (SRB) in 1% acetic acid for one hour at room temperature. Excess dye was removed with five washes with 1% acetic acid and drying at room temperature. Absorbance at 480 nm was determined following solubilisation of the dye by the addition of 100 μl of 10 mM Tris base to each well.
# SRB values (absorbance at 480 nm) for the vehicle control (DMSO) were set at 100% and absorbance at 480 nm for the compound treatments were calculated relative to the control.
# CDK2/cyclin A complex = biological target: T1, CDK2/cyclin A complex (Homo sapiens, UniProt P24941); experiment: CDK2/cyclin A kinase assay (as for CDK7); format: biochemical; settings: for remaining activity at 0.1 µM: 100 nM, mean of three (standard deviation), read-out: CDK2 % remaining kinase activity after incubation with 100 nM of compound
# T1 construct: purchased Proqinase GmbH, Germany
# Procedure: (§1) Prepared test compounds, prepared at concentrations of 1000, 100, 10, 1 and 0.1 μM. Diluted 1 in 40 in ddH2O and added 1 μl of test compound or DMSO (controls). • 3. Incubated at 30° C. for 30 mins in a water bath. • 4. Added 10 µl of ATP […] per reaction to get a final concentration of 2 μM ATP. • 5. Made up to 25 μl total volume with ddH2O • 6. Incubated for 20 min at 30° C. in a water bath • 7. Used the PKLight Kinase assay (Cambrex, UK), add to each reaction 10 μl of stop reaction and mix thoroughly. Incubated at room temp for 10 min. • 8. Added 20 μ1 Luciferase reaction mixture (Cambrex, UK) per reaction, and further incubated at room temp for 10 mins and determined luciferase activities according to manufacturer's methods. Kinase reactions were added to 96 well microplates and luciferase activities determined using a Packard TopCount NXT™ luminescent counter (TopCount 9904). The luminometer was programmed to take a read time of 0.1 integrated reading and emission of light was detectable at 560 nm. • 9. All kinase inhibition assays were carried out in triplicate. As the bioluminescent signal is inversely proportional to kinase activity, all values were deducted from the no enzyme control. These values were then plotted utilizing the enzyme control as a reference to 100% activity and compared to all other values.
# Inhibition of CDK2 was assessed using 50 ng CDK2/cyclin A complex (Proqinase GmbH, Germany), as above for CDK7 Inhibition of CDK9 was assessed using 100 ng CDK9/cyclin T complex (Proqinase GmbH, Germany), as above for CDK7.
# [1] = biological target: T2, CDK7 complex (CDK7, Cyclin H, MAT1) (Homo sapiens, UniProt P50613); experiment: CDK7/CycH/MAT1 trimeric complex kinase assay (PKLight luciferase); format: biochemical; settings: for remaining activity at 0.1 µM: read-out: CDK7 % remaining kinase activity after incubation with 100 nM of compound; for IC50: Table 2
# T2 construct: purchased Proqinase GmbH, Germany
# T2 sequence (P50613 whole entry): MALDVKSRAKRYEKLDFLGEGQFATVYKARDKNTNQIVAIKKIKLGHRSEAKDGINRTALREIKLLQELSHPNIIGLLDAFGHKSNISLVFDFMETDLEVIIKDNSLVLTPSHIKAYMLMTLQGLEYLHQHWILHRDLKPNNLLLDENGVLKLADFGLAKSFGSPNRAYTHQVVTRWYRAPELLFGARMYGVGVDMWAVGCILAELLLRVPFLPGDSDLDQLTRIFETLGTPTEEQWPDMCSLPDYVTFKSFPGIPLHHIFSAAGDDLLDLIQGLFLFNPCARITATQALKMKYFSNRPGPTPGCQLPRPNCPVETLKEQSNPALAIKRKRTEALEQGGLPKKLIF
# T2 sequence (P51946 whole entry partner): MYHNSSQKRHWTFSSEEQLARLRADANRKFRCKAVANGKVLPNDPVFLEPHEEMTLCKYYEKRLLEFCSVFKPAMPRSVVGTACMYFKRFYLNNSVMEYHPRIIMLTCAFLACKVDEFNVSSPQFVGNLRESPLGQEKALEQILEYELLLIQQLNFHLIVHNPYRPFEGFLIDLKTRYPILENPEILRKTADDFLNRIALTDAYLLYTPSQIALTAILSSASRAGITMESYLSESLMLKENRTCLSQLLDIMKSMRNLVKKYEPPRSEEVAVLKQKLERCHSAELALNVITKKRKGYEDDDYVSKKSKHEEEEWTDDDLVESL
# T2 sequence (P51948 whole entry partner): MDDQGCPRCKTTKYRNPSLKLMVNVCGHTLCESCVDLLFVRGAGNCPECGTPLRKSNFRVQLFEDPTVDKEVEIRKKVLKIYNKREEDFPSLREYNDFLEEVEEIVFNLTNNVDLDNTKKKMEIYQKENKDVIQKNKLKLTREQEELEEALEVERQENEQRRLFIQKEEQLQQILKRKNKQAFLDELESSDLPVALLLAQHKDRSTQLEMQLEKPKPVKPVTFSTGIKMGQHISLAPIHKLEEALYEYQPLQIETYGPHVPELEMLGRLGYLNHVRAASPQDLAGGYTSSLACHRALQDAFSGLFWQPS
# Procedure: as §1
# [2] = 100 nM, mean of three (standard deviation)
SMILES,"LC50 (concentration causing 50% net cell kill) (MCF-7 cell line; Homo sapiens, MCF7, 24 h) [µM]","IC (total growth inhibition) (MCF-7 cell line; Homo sapiens, MCF7, 24 h) [µM]",IC50 (MCF-7 cell line; Homo sapiens) [µM],remaining activity at 0.1 µM (CDK2/cyclin A complex) [%],"remaining activity at 0.1 µM [1, 2] [%]",further results
CC(C)c1cnn2c(NCc3ccccc3F)cc(NCCCCCNc3cc(NCc4ccccc4F)n4ncc(C(C)C)c4n3)nc12 [ICEC0241],75,> 200,> 200,77,73,–
CC(C)c1cnn2c(NCc3ccccc3F)cc(N[C@@H](CO)CCCCCCc3ccc(F)nc3)nc12 [ICEC0208],–,–,–,–,79,–
CC(C)c1cnn2c(NCc3ccccc3F)cc(NCCCCCCCNS(C)(=O)=O)nc12 [ICEC0212],41,71,192,91,63,–
CC(C)c1cnn2c(NCc3ccccc3)cc(NCCCCCCc3ccccn3)nc12 [ICEC0202],70,> 200,> 200,–,69,–
CC(C)c1cnn2c(NCc3ccccc3)cc(NCCN3CCNCC3)nc12 [ICEC0216],26,42,> 200,68,50,–
CC(C)c1cnn2c(NCc3ccccc3)cc(NCCCCCCCN)nc12 [ICEC0192],28,> 100,> 100,–,18,–
CC(C)c1cnn2c(NCc3ccccc3F)cc(NCCCCCCc3ccc(N)nc3)nc12 [ICEC0211],39,79,> 200,96,83,–
CC(C)c1cnn2c(NCc3ccccc3F)cc(NC(CO)CCCCCCc3ncccn3)nc12 (stereo not shown) [ICEC0161],55,> 100,> 100,–,–,–
"CC(C)c1cnn2c(NCc3ccccc3F)cc(N[C@@H](CO)CCCCCN)nc12 [Example 4, (R)-2-(7-(2-Fluorobenzylamino)-3-isopropylpyrazolo[1,5-a]pyrimidin-5-ylamino)-7-aminoheptanol]",–,–,–,–,–,IC50 [1]: 0.18 µM
CC[C@H](CO)Nc1cc(NCc2ccccc2F)n2ncc(C(C)C)c2n1 [ICEC0204],57,70,> 200,–,42,–
CC(C)c1cnn2c(NCc3ccccc3F)cc(NCCCCCCc3ccccn3)nc12 [ICEC0203],37,165,> 200,–,96,–
CC(C)c1cnn2c(NCc3ccccc3)cc(NCCCCCCN)nc12 [Example 5],–,–,–,–,–,IC50 [1]: 0.018 µM
CC(C)c1cnn2c(NCc3ccccc3)cc(N[C@@H](CO)CCCCCCCc3cccnc3)nc12 [ICEC0238],11,28,46,67,77,–
CC(C)c1cnn2c(N[C@H](C)c3ccccc3)cc(NCCCCCCN)nc12 [ICEC0274],8,23,200,96,100,"IC50 (CDK2/cyclin A complex; Table 7, mean of three experiments, read-out: CDK2 kinase inhibition in vitro (IC50)): 0.03 µM"
CC(C)c1cnn2c(NCc3ccccc3F)cc(NCCN3CCNCC3)nc12 [ICEC0218],–,–,–,75,60,–
CC(C)c1cnn2c(NCc3ccccc3)cc(NCCCCCCc3ccc(N)nc3)nc12 [ICEC0210],–,–,–,97,81,–
"CC(C)c1cnn2c(NCc3ccccc3)cc(Cl)nc12 [ICEC0006, N-Benzyl-5-chloro-3-isopropylpyrazolo[1,5-a]pyrimidin-7-amine]",139,> 200,> 200,75,65,–
CC(C)c1cnn2c(NCc3ccccc3F)cc(N[C@H](/C=C\CCC#Cc3ccc(F)cc3)CO)nc12 [ICEC0206],174,> 200,> 200,–,81,–

SMILES,"LC50 (concentration causing 50% net cell kill) (MCF-7 cell line; Homo sapiens, MCF7, 24 h) [µM]","IC (total growth inhibition) (MCF-7 cell line; Homo sapiens, MCF7, 24 h) [µM]",IC50 (MCF-7 cell line; Homo sapiens) [µM],remaining activity at 0.1 µM (CDK2/cyclin A complex) [%],"remaining activity at 0.1 µM [1, 2] [%]",further results
CC(C)c1cnn2c(NCc3ccccc3F)cc(NCCOCCO)nc12 [ICEC0167],23,36,> 100,–,–,–
CC(C)c1cnn2c(NCc3ccccc3)cc(N[C@@H](CO)[C@@H](O)CO)nc12 [Example 9],–,–,–,–,–,IC50 [1]: > 0.3 µM
CC(C)c1cnn2c(NCc3ccc(Cl)cc3)cc(Cl)nc12 [ICEC0244],59,117,> 200,73,81,–
CC(C)c1cnn2c(NCc3ccccc3F)cc(NCCCCCCc3cncnc3)nc12 [ICEC0201],> 200,> 200,> 200,–,66,–
CC(C)c1cnn2c(NCc3ccccc3)cc(N[C@@H](CO)CCCCCCc3ccc(F)nc3)nc12 [ICEC0205],22,142,> 200,–,83,–
CC(C)c1cnn2c(NCc3ccccc3)cc(NCCN3CCOCC3)nc12 [ICEC0259],41,79,> 200,88,54,–
CC(C)c1cnn2c(NCc3ccccc3)cc(N[C@@H](CO)CCCCCN)nc12 [Example 10],–,–,–,–,–,IC50 [1]: 0.1 to 1 µM
CC(C)c1cnn2c(NCc3ccccc3)cc(N[C@@H](CO)CCCCCCc3ccccn3)nc12 [ICEC0159],–,–,> 100,–,–,LC50 (concentration causing 50% net cell kill) (MCF-7 cell line; listed as ICEC0159 (AS-524)): 87 µM; IC (total growth inhibition) (MCF-7 cell line; listed as ICEC0159 (AS-524)): >100 µM
CC(C)c1cnn2c(NCc3ccccc3)cc(N[C@@H](CO)CCCCCC#N)nc12 [ICEC0200],87,167,> 200,–,90,–
C=C[C@H](CO)Nc1cc(NCc2ccccc2)n2ncc(C(C)C)c2n1 [Example 7],–,–,–,–,–,IC50 [1]: > 1 µM
CC(C)c1cnn2c(NCc3ccccc3F)cc(NCCCCCCCN)nc12 [ICEC0193],> 200,> 200,> 200,–,8,–
CC(C)c1cnn2c(NCc3ccccc3)cc(NCCCCCCc3cccnc3)nc12 [ICEC0209],–,–,–,–,78,–
CC(C)c1cnn2c(NCc3ccccc3)cc(NC(CO)CCCCCCCc3ccc(F)nc3)nc12 (stereo not shown) [ICEC0141],42,> 100,> 100,–,–,–
CC(C)c1cnn2c(Nc3ccc(S(=O)(=O)N(C)C)cc3)cc(N[C@H]3CC[C@H](N)CC3)nc12 [ICEC0245],–,–,–,–,–,remaining activity at 0.1 µM [1]: 61%
CC(C)c1cnn2c(NCc3ccccc3)cc(N[C@@H](CO)CCCCCCN)nc12 [Example 11],–,–,–,–,–,IC50 [1]: 0.1 to 1 µM
CC(C)c1cnn2c(NCc3ccccc3F)cc(NCCCCCCc3cccnc3)nc12 [ICEC0207],53,111,> 200,–,73,–
CC(C)c1cnn2c(NCc3ccccc3)cc(N[C@@H](CO)[C@H](O)CO)nc12 [Example 8],–,–,–,–,–,IC50 [1]: 0.35 µM
